Laboratory results taken from PMC10981527 (Bioorganic & medicinal chemistry letters, 2024).
Read-outs that look alike come from different tables or passages of the source. Values belong to the compound of their own block, whether it stands above or below them.

Experiments:
[1] = target: T1, geranylgeranyl diphosphate synthase (GGDPS) (Homo sapiens, UniProt O95749); conditions: read-out: GGDPS IC50; historical control; cited from earlier work
T1 sequence (O95749 1-300): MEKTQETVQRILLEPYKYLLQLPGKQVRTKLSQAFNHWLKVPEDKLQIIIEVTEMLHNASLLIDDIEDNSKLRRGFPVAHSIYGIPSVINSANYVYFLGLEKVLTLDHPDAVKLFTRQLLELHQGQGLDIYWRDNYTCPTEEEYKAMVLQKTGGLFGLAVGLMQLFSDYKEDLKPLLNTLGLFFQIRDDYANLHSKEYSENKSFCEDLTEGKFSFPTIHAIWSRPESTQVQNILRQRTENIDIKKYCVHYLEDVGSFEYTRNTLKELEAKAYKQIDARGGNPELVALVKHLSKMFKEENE

[2] = tested on: myeloma cells; conditions: cited from earlier work
[3] = target: T1, geranylgeranyl diphosphate synthase (GGDPS); assay: Enzyme assay utilizing recombinant GGDPS; assay type: biochemical
[4] = tested on: farnesyl diphosphate synthase (FDPS); conditions: in words; cited from earlier work
[5] = observed only at high concentrations; cited from earlier work
[6] = tested on: RPMI-8226 cells; conditions: historical control; cited from earlier work

Compound: CC(C)=CCC/C(C)=C/CCn1cc(CC(C)(P(=O)([O-])[O-])P(=O)([O-])[O-])nn1.[Na+].[Na+].[Na+].[Na+] [Compound 7]
IC50 [1]: 0.086 ± 0.022 µM
Cellular activity, lowest concentration [2]: 25 nM

GGDPS inhibitory activity in enzyme assay [3]: no activity
Compound: CC(C)=CCC/C(C)=C/Cn1cc(CC(N)(P(=O)(O)O)P(=O)(O)O)nn1 [Compound 18]

Compound: CC(C)=CCC/C(C)=C/CCn1cc(CC(P(=O)([O-])[O-])P(=O)([O-])[O-])nn1.[Na+].[Na+].[Na+].[Na+] [Compound 5]
Specificity for GGDPS over FDPS [4]: high specificity
Cellular activity, lowest concentration ([2]; myeloma cells, mixture of olefin isomers): 30 nM

Compound: CC(C)=CCC/C(C)=C/CC(C/C=C(\C)CCC=C(C)C)(P(=O)(O)O)P(=O)(O)O [Compound 3, digeranyl bisphosphonate]
Concentration at which cellular activity was observed [5]: ~ 10 μM

Compound: CC(C)=CCC/C(C)=C\CCn1cc(CC(C)(P(=O)([O-])[O-])P(=O)([O-])[O-])nn1.[Na+].[Na+].[Na+].[Na+] [Compound 6]
IC50 [1]: 0.125 ± 0.027 µM
Cellular activity, lowest concentration [2]: 20 nM
Cellular LEC (lowest effective concentration) [6]: 0.02 µM
